Like-named read-outs stand apart in the source and are kept apart here.
Target: T1, Ouabain sensitive dog kidney Na^+/K^+ ATPase (Canis lupus familiaris, UniProt P50997)
T1 construct: Ouabain sensitive dog kidney Na^+/K^+ ATPase was obtained from Sigma (Shanghai, China); purchased Sigma (Shanghai, China); host or cells: dog kidney (tissue-derived enzyme preparation)
Assay: Assay of Na+/K+ ATPase activity (released inorganic phosphate, absorbance at 660 nm)
Format: biochemical
Protocol: Specific rotation measurements were recorded on a Perkin-Elmer 242 MC polarimeter. UV spectra were recorded on a Hewlett-Packard HP-845 UV-VIS spectrophotometer. IR spectra were recorded on a Nicolet 470 spectrometer and MS on a Varian MAT-212 mass spectrometer and a Shimadzu GC-MS model QP2010 Plus spectrophotometer, respectively. NMR spectra were recorded on a Bruker AM-400 spectrameter (400 MHz for ^1H-NMR) or a Bruker DRX-500 (500 MHz for ^1H-NMR) spectrameter using standard Bruker pulse programs. Chemical shifts are given as δ values with reference to tetramethylsilane (TMS) as internal standard. Column chromatography separations were carried out on silica gel (200–300 mesh, Qingdao Haiyang Chemical Co. Ltd, Qingdao, China), ODS (50 mesh, AA12S50, YMC), Diaion HP-20 (Pharmacia, Peapack, NJ, USA) and Sephadex LH-20 (Pharmacia, Peapack, NJ, USA). Ouabain sensitive dog kidney Na^+/K^+ ATPase was obtained from Sigma (Shanghai, China). All other chemicals used were of biochemical reagent grade.
The Na^+/K^+ ATPase activity was assayed according to the reported method with some modification. […] The released inorganic phosphate was determined by the following method. […] After 25 min, the absorbance at 660 nm was recorded.

SMILES	IC50 (0.02 units enzyme, 3 mM ATP, pH 7.3, 37 °C, 20 min, 5% DMSO, read-out: IC50, inhibitory activity on Na^+/K^+ ATPase)	IC50
CC1CCC2(OC1)OC1CC3C4CC(=O)C5CC(OC6OC(CO)C(O)C(O)C6OC6OC(C)C(O)C(O)C6O)CCC5(C)C4CCC3(C)C1C2C [Compound 3, (25R)-3β-hydroxyl-5α-spirostan-6-one 3-O-α-L-rhamnopyranosyl-(1→2)-β-D-glucopyranoside]	73 µM	–
C[C@@H]1O[C@@H](O[C@H]2C[C@@H](O)[C@]3(CO)[C@H]4[C@H](O)C[C@]5(C)[C@@H](C6=CC(=O)OC6)CC[C@]5(O)[C@@H]4CC[C@]3(O)C2)[C@H](O)[C@H](O)[C@H]1O [Ouabain, reference compound]	–	1 µM

— publication PMC6268628, “Steroidal and Phenolic Glycosides from the Bulbs of Lilium pumilum DC and Their Potential Na^+/K^+ ATPase Inhibitory Activity” (Molecules, 2012)
